Measured values: ChEMBL document CHEMBL1208710, “NF-kappaB inducing kinase (NIK) inhibitors: identification of new scaffolds using virtual screening” (Bioorg Med Chem Lett, 2010)
pIC50: −log10 of the molar value.

How the values were obtained:
[1] = target: T1, Mitogen-activated protein kinase kinase kinase 14 (Homo sapiens, UniProt Q99558); assay: Inhibition of human recombinant GST-fused NIK expressed in Sf9 cells at 50 uM after 60 mins by radiometric protein kinase assay
Target sequence in this assay (Q99558 whole entry, looked up, the tested form may be a part): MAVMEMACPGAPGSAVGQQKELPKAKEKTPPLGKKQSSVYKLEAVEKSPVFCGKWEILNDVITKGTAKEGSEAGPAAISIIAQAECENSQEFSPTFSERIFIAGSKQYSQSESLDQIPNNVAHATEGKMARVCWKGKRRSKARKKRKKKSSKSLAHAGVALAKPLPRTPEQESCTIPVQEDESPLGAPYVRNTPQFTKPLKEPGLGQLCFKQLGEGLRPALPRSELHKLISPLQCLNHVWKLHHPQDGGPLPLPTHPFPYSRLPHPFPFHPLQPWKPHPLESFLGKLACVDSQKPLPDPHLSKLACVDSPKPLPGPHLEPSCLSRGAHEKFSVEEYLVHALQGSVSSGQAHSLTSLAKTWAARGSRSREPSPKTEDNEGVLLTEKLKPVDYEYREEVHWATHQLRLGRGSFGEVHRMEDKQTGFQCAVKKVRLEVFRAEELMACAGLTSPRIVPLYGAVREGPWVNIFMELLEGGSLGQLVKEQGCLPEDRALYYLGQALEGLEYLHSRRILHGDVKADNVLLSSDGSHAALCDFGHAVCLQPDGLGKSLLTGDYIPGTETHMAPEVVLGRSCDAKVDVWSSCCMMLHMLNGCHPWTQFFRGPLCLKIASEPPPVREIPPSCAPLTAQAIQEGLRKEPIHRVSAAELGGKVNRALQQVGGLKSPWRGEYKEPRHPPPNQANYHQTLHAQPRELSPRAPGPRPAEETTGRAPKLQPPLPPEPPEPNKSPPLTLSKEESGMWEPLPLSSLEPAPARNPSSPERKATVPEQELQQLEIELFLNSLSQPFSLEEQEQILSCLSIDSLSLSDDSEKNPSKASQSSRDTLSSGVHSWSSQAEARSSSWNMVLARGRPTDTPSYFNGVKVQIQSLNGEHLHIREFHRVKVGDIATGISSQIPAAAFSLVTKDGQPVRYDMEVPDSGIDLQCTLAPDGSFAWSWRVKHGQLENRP

[2] = target: T1, Mitogen-activated protein kinase kinase kinase 14; assay: Inhibition of human recombinant GST-fused NIK expressed in Sf9 cells after 60 mins by radiometric protein kinase assay
Target sequence in this assay (Q99558 whole entry, the tested form may be a part): as the sequence (Q99558 whole entry, looked up, the tested form may be a part) above

Row | SMILES | inhibition [1] [%] | pIC50 [2]
1 | O=C1NC(=O)c2ccccc2/C1=C\c1cccs1 | 25 | < 4.00
2 | CCO/C=C1/C(=O)NC(=O)c2ccccc21 | 44 | < 4.30
3 | CC1=CC(=O)c2c(O)cccc2C1=O [PLUMBAGIN] | 60 | < 4.00
4 | CCOC(=O)N1CCC(NC(=O)Cn2c(=O)[nH]c(=O)c3ccccc32)CC1 | < 15 | 
5 | O=C1Cc2ccccc2C(=O)N1 | 60 | 4.29
6 | O=C1Cc2ccccc2CN1 |  | < 4.00
7 | O=C1CC2CC(=O)NC(=O)C2C(=O)N1 (stereo unspecified) | 53 | 4.05
8 | O=c1[nH]c(=O)c2c(Cl)cc(Cl)cc2[nH]1 |  | < 4.00
9 | CC(NC(=O)Cn1c(=O)[nH]c(=O)c2ccccc21)c1cccs1 (stereo unspecified) | < 15 | 
10 | CN(C)c1ccc(CNC(=O)Cn2c(=O)[nH]c(=O)c3ccccc32)cc1 | < 15 | 
11 | O=C(Cn1c(=O)[nH]c(=O)c2ccccc21)NCc1ccccn1 | < 15 | 
